Data reported in patent US7223745B2, “Proteasome inhibitors and methods of using the same” (Cephalon, Inc., priority 2003, dated 2007).
pEC50, pIC50: −log10 of the molar value. One block for each compound: values may come before it.

How the values were obtained:
[1] = target: T1, 20S Human Erythrocyte Proteasome (HEP) (Homo sapiens, UniProt P28074); test: Chymotrypsin-like activity of 20S Human Erythrocyte Proteasome (HEP), IC50 determination; assay type: biochemical; settings: Suc-LLVY-AMC substrate, 15 minutes preincubation at 37° C.
T1 construct: 20S Human Erythrocyte Proteasome (HEP), purchased from Immatics Biotechnologies Inc; purchased Immatics Biotechnologies Inc., Tubingen, Germany; host or cells: human erythrocytes (natural source)
Procedure: Proteasome chymotrypsin-like activity of compounds of the invention was assayed according to the following procedure.
In 96-well microtiter plates, 20S Human Erythrocyte Proteasome (HEP), purchased from Immatics Biotechnologies Inc., Tubingen, Germany was plated at 0.2 μg/mL (about 0.6 nM catalytic sites) in 0.04% SDS 20 mM Tris buffer. A fluorimetric substrate Suc-LLVY-AMC (succinyl-Leu-Leu-Val-Tyr-7-amido-4-methylcoumarin), purchased from Sigma Inc., St. Louis, Mo., USA was added to a final concentration of 100 μM from a stock solution of 10 mM in dimethylsulfoxide. Reaction volumes were 100 μl per well. After incubation for various periods of time at 37° C., the concentration of free AMC (aminomethylcoumarin) was determined on a Perkin Elmer HTS 7000 Plus microplate reader, excitation 370 nm and emission 465 nm. Proteasome activity was determined under conditions in which substrate hydrolysis increased linearly with time and the change in fluorescence signal was proportional to the concentration of free AMC.
IC50 values are typically defined as the concentration of a compound necessary to produce 50% inhibition of the enzyme's activity. IC50 values are useful indicators of the activity of a compound for its designated use. […] In some embodiments, the inhibitors show some specificity for HEP and the ratio of the IC50 for inhibition of bovine α-chymotrypsin versus the IC50 for inhibition of HEP, i.e, IC50 (α-Chymotripsin)/IC50 (HEP), is greater then about 100.
(§1) Inhibition of the chymotrypsin-like activity of HEP and of bovine α-chymotrypsin was determined by incubating the enzyme with various concentrations of putative inhibitors for 15 minutes at 37° C. (or room temperature for α-chymotrypsin) prior to the addition of substrate. Each experimental condition was evaluated in triplicate, and replicate experiments were performed for the inhibitors described herein.

[2] = system: proteasome in Molt-4 cells; test: Cellular assay for chymotrypsin-like activity of proteasome in Molt-4 cell line, EC50 determination; assay type: cell-based, human; settings: MeOSuc-FLF-AFC substrate, 15 minutes preincubation at 37° C., read-out: MOLT4 (EC50)
Procedure: The chymotrypsin-like activity of proteasome in Molt-4 cells (human leukemia) was assayed according to the following procedure. A brief description of the method was published previously (Harding et al., J. Immunol., 1995, 155, 1767).
Molt-4 cells were washed and resuspended in HEPES-buffered Saline (5.4 mM KCl, 120 mM NaCl, 25 mM Glucose, 1.5 mM MgSO4, 1 mM Na pyruvate, 20 mM Hepes) and plated in 96-well microtiter white plates to a final concentration of 6×10^6 cells/mL. Then various 5× proteasome inhibitor concentrations (or diluted DMSO for controls), prepared from 250×DMSO solutions by diluting 50-fold using HEPES-buffered saline, were added to the plate to a final 1× concentration. After 15 minutes incubation at 37° C., a fluorimetric cell permeable substrate (MeOSuc-FLF-AFC) (methoxysuccinyl-Phe-Leu-Phe-7-amido-4-trifluoromethylcoumarin) purchased from Enzyme Systems Products, catalogue number AFC-88, was added to each well at a final concentration of 25 μM from a stock solution of 20 mM in DMSO. Reaction volumes were 100 μl per well.
The concentration of free AFC was monitored every 1.5 min for 30 min ([…]) on a Polastar Optima, BMG Labtechnologies microplate reader, using an excitation wavelength of 390 nm and emission wavelength of 520 nm. Proteasome activity was determined under conditions in which substrate hydrolysis increased linearly with time and the change in fluorescent signal was proportional to the concentration of free AFC.
EC50 values are typically defined as the concentration of a compound required to produce an inhibition of the enzyme's activity halfway between the minimum and the maximum response (0% and 85–90% respectively for this assay). EC50 values are useful indicators of the activity of a compound for its designated use.
as §1, with “of” for “of the”, “proteasome in Molt-4 cells” for “HEP and of bovine α-chymotrypsin”, “cells” for “the enzyme”, “C.” for “C. (or room temperature for α-chymotrypsin)”

SMILES: CC(C)C[C@H](NC(=O)[C@H](CCCNC(=N)N[N+](=O)[O-])NC(=O)CCCCCCCCCCCNC(=O)OC(C)(C)C)B1O[C@@H]2C[C@@H]3C[C@@H](C3(C)C)[C@]2(C)O1 [Example 11, 12-[(1,1-dimethylethoxy)carbonylamino]dodecanamide, N-[(1S)-1-[[[(1R)-1-[(3aS,4S,6S,7aR)-hexahydro-3a,5,5-trimethyl-4,6-methano-1,3,2-benzodioxaborol-2-yl]-3-methylbutyl]amino]earbonyl]-4-[[imino(nitroamino)methyl]amino]butyl]-]
pIC50 [1]: > 8.00
pEC50 [2]: > 6.70

SMILES: CC(C)C[C@H](NC(=O)[C@H](CCCNC(=N)N[N+](=O)[O-])NC(=O)CCCCCCCCCCC#N)B(O)O [Example 20, Boronic acid, [(1R)-1-[[(2S)-5-[[imino(nitroamino)methyl]amino]-2-[(11-Cianoundecanoyl)amino]-1-oxopentyl]amino]-3-methylbutyl]]
pIC50 [1]: > 8.00
pEC50 [2]: > 5.00

SMILES: CCS(=O)(=O)NCCCCCC(=O)N[C@@H](CCCNC(=N)N[N+](=O)[O-])C(=O)N[C@@H](CC(C)C)B1O[C@@H]2C[C@@H]3C[C@@H](C3(C)C)[C@]2(C)O1 [Example 17, 6-(Ethanesulfonylamino)hexanamide, N-[(1S)-1-[[[(1R)-1-[(3aS,4S,6S,7aR)-hexahydro-3a,5,5-trimethyl-4,6-methano-1,3,2-benzodioxaborol-2-yl]-3-methylbutyl]amino]carbonyl]-4-[[imino(nitroamino)methyl]amino]butyl]]
pIC50 [1]: > 7.00
pEC50 [2]: < 5.00

SMILES: CC(C)C[C@H](NC(=O)[C@H](CCCNC(=N)N[N+](=O)[O-])NC(=O)CCCCCCCCCCC#N)B1O[C@@H]2C[C@@H]3C[C@@H](C3(C)C)[C@]2(C)O1 [Example 13, 11-Cyanoundecanamide, N-[(1S)-1-[[[(1R)-1-[(3aS,4S,6S,7aR)-hexahydro-3a,5,5-trimethyl-4,6-methano-1,3,2-benzodioxaborol-2-yl]-3-methylbutyl]amino]carbonyl]-4-[[imino(nitroamino)methyl]amino]butyl]-.]
pIC50 [1]: > 8.00
pEC50 [2]: > 6.70

SMILES: CCS(=O)(=O)NCCCCCCCC(=O)N[C@@H](CCCNC(=N)N[N+](=O)[O-])C(=O)N[C@@H](CC(C)C)B1O[C@@H]2C[C@@H]3C[C@@H](C3(C)C)[C@]2(C)O1 [Example 19]
pIC50 [1]: > 8.00
pEC50 [2]: > 6.70

SMILES: CC(C)C[C@H](NC(=O)[C@H](CCCNC(=N)N[N+](=O)[O-])NC(=O)CCCCCNS(=O)(=O)c1ccccc1)B1O[C@@H]2C[C@@H]3C[C@@H](C3(C)C)[C@]2(C)O1 [Example 18, 6-Benzenesulfonylaminohexanamide, N-[(1S)-1-[[[(1R)-1-[(3aS,4S,6S,7aR)-hexahydro-3a,5,5-trimethyl-4,6-methano-1,3,2-benzodioxaborol-2-yl]-3-methylbutyl]amino]carbonyl]-4-[[imino(nitroamino)methyl]amino]butyl]]
pIC50 [1]: > 8.00
pEC50 [2]: > 5.70

SMILES: CC(C)C[C@H](NC(=O)[C@H](CCCNC(=N)N[N+](=O)[O-])NC(=O)CCCCCCCCCN1C(=O)c2ccccc2C1=O)B1O[C@@H]2C[C@@H]3C[C@@H](C3(C)C)[C@]2(C)O1 [Example 10, 10-(1,3-Dioxo-1,3-dihydro-isoindol-2-yl)-decanamide, N-[(1S)-1-[[[(1R)-1-[(3aS,4S,6S,7aR)-hexahydro-3a,5,5-trimethyl-4,6-methano-1,3,2-benzodioxaborol-2-yl]-3-methylbutyl]amino]carbonyl]-4-[[imino(nitroamino)methyl]amino]butyl]-;]
pIC50 [1]: > 8.00
pEC50 [2]: > 6.70

Other lines, results leading:

pIC50 [1]: > 8.00
pEC50 [2]: > 6.70
SMILES: CC(C)C[C@H](NC(=O)[C@H](CCCNC(=N)N[N+](=O)[O-])NC(=O)CCCCCCCCCN1C(=O)c2ccccc2C1=O)B(O)O [Example 23]

pIC50 [1]: > 8.00
pEC50 [2]: > 5.70
SMILES: COC(=O)CCCCCCC(=O)N[C@@H](CCCNC(=N)N[N+](=O)[O-])C(=O)N[C@@H](CC(C)C)B1O[C@@H]2C[C@@H]3C[C@@H](C3(C)C)[C@]2(C)O1 [Example 12]

pIC50 [1]: > 8.00
pEC50 [2]: < 5.00
SMILES: CC(C)C[C@H](NC(=O)[C@H](CCCNC(=N)N[N+](=O)[O-])NC(=O)CCCCCCCCC#N)B(O)O [Example 21, Boronic acid, [(1R)-1-[[(2S)-5-[[imino(nitroamino)methyl]amino]-2-[(9-Cyanononanoyl)amino]-1-oxopentyl]amino]-3-methylbutyl]]

pIC50 [1]: > 8.00
pEC50 [2]: < 5.00
SMILES: CC(=O)NCCCCCC(=O)N[C@@H](CCCNC(=N)N[N+](=O)[O-])C(=O)N[C@@H](CC(C)C)B(O)O [Example 24, Boronic acid, [(1R)-1-[[(2S)-5-[[imino(nitroamino)methyl]amino]-2-[[6-(acetylamino)hexanoyl]amino]-1-oxopentyl]amino]-3-methylbutyl]]

pIC50 [1]: > 8.00
pEC50 [2]: < 5.00
SMILES: COC(=O)CCCCCCC(=O)N[C@@H](CCCNC(=N)N[N+](=O)[O-])C(=O)N[C@@H](CC(C)C)B(O)O [Example 22, Boronic acid, [(1R)-1-[[(2S)-5-[[imino(nitroamino)methyl]amino]-2-[[7-(methoxycarbonyl)heptanoyl]amino]-1-oxopentyl]amino]-3-methylbutyl]]

pIC50 [1]: > 8.00
pEC50 [2]: > 6.70
SMILES: CC(C)C[C@H](NC(=O)[C@H](CCCNC(=N)N[N+](=O)[O-])NC(=O)CCCCCCCCCCCN1C(=O)c2ccccc2C1=O)B1O[C@@H]2C[C@@H]3C[C@@H](C3(C)C)[C@]2(C)O1 [Example 16]

pIC50 [1]: > 7.00
SMILES: CC(=O)NCCCCCC(=O)N[C@@H](CCCNC(=N)N[N+](=O)[O-])C(=O)N[C@@H](CC(C)C)B1O[C@@H]2C[C@@H]3C[C@@H](C3(C)C)[C@]2(C)O1 [Example 15, 6-(Acetylamino)hexanamide, N-[(1S)-1-[[[(1R)-1-[(3aS,4S,6S,7aR)-hexahydro-3a,5,5-trimethyl-4,6-methano-1,3,2-benzodioxaborol-2-yl]-3-methylbutyl]amino]carbonyl]-4-[[imino(nitroamino)methyl]amino]butyl]]

pIC50 [1]: > 8.00
pEC50 [2]: > 6.70
SMILES: CC(C)C[C@H](NC(=O)[C@H](CCCNC(=N)N[N+](=O)[O-])NC(=O)CCCCCCCCC#N)B1O[C@@H]2C[C@@H]3C[C@@H](C3(C)C)[C@]2(C)O1 [Example 14, 9–Cyanononamide, N-[(1S)-1-[[[(1R)-1-[(3aS,4S,6S,7aR)-hexahydro-3a,5,5-trimethyl-4,6-methano-1,3,2-benzodioxaborol-2-yl]-3-methylbutyl]amino]carbonyl]-4-[[imino(nitroamino)methyl]amino]butyl]]
